From paper PMC10743905, “Design, Synthesis, and In Vitro and In Vivo Bioactivity Studies of Hydrazide–Hydrazones of 2,4-Dihydroxybenzoic Acid” (International Journal of Molecular Sciences, 2023)
≈ marks a conversion by molar mass, not a printed value.

Tested on: Candida krusei ATCC 14243
Experiment: Broth microdilution MIC/MFC
Assay type: cell-based
Conditions: Pichia kudriavzevii, ATCC14243, read-out: MIC
Excerpt: (§1) In vitro antimicrobial activity assays - Methodology
(§2) The examined compounds 1 - 24 were screened in vitro for antibacterial and antifungal activities using the broth microdilution method according to procedure reported earlier by our research group and European Committee on Antimicrobial Susceptibility Testing (EUCAST) and Clinical and Laboratory Standards Institute (CLSI) guidelines against a panel of reference and clinical or saprophytic strains of microorganisms, in-cluding Gram-positive bacteria, Staphylococcus aureus ATCC 43300 (Methicillin Resistant S. aureus – MRSA), Staphylococcus aureus ATCC 29213 (Methicillin Susceptible S. aureus – MSSA), Staphylococcus epidermidis ATCC 12228, Enterococcus faecalis ATCC 29212, Micro-coccus luteus ATCC 10240, Bacillus subtilis ATCC 6633 and Bacillus cereus ATCC 10876), Gram-negative bacteria (Bordetella bronchiseptica ATCC 4617, Escherichia coli ATCC 25922, Klebsiella pneumoniae ATCC 13883, Proteus mirabilis ATCC 12453, Salmonella typhimurium ATCC 14028 and Pseudomonas aeruginosa ATCC 9027) and fungi belonging to yeasts (Can-dida albicans ATCC 10231, Candida albicans ATCC 2091, Candida parapsilosis ATCC 22019, Candida glabrata ATCC 90030 and Candida krusei ATCC 14243). The microorganisms be-longing to ATCC came from American Type Culture Collection, routinely used for the evaluation of antimicrobials. All the used microbial cultures were first subcultured on nu-trient agar or Sabouraud agar at 35°C for 18-24 h or 30°C for 24-48 h for bacteria and fungi, […]
(§3) The surface of Mueller-Hinton agar (for bacteria) and RPMI 1640 with MOPS (for fungi) were inoculated with the suspensions of bacterial or fungal species. Microbial suspensions were prepared in sterile saline with an optical density of McFarland standard scale 0.5.
(§4) Samples containing examined compounds were dissolved in dimethyl sulfoxide (DMSO).
(§5) Furthermore, bacterial and fungal suspensions were put onto Petri dishes with solid me-dia containing 2 mg/mL of the tested compounds followed incubation at 37°C for 24h and 30°C for 48h for bacteria and fungi, respectively. The inhibition of microbial growth was judged by comparison with a control culture prepared without any sample tested. Ciprof-loxacin, vancomycin, nitrofurantoin, cefuroxime, ampicillin or nystatin (Sigma) were used as a reference antibacterial or antifungal compounds, respectively.
(§6) Subsequently, the MIC (Minimal Inhibitory Concentration) of the compounds was ex-amined by the microdilution broth method, using their two-fold dilutions in Mueller- […]
(§7) Hinton broth or (for bacteria) and RPMI 1640 broth with MOPS (for fungi) prepared in 96-well polystyrene plates. Final concentrations of the compounds ranged from 1000 to 0.488 µg/ml. Microbial suspensions were prepared in 0.85% NaCl with an optical density of 0.5 McFarland standard. Next each bacterial or fungal suspension was added per each well containing broth and various concentrations of the examined compounds. After incuba-

MIC | Compound
> 1000 µg/mL | CCOc1ccc(/C=N/NC(=O)c2ccc(O)cc2O)cc1 [Compound 5, N-[(4-ethoxyphenyl)methylidene]-2,4-dihydroxybenzohydrazide]

Tested on: Candida glabrata ATCC 90030
Experiment: Broth microdilution MIC/MFC
Assay type: cell-based
Conditions: Nakaseomyces glabratus, ATCC90030, read-out: MIC
Excerpt: as §1, §2, §3, §4, §5, §6, §7

MIC | Compound
> 1000 µg/mL | CCOc1ccc(/C=N/NC(=O)c2ccc(O)cc2O)cc1 [Compound 5, N-[(4-ethoxyphenyl)methylidene]-2,4-dihydroxybenzohydrazide]

Tested on: Candida albicans ATCC 10231
Experiment: Broth microdilution MIC/MFC
Assay type: cell-based
Conditions: not given
Excerpt: as §1, §2, §3, §4, §5, §6, §7

MFC/MIC | Compound
> 1 | CCOc1ccc(/C=N/NC(=O)c2ccc(O)cc2O)cc1 [Compound 5, N-[(4-ethoxyphenyl)methylidene]-2,4-dihydroxybenzohydrazide]

Same assay, conditions: ATCC10231, read-out: MFC

Compound | MFC
CCOc1ccc(/C=N/NC(=O)c2ccc(O)cc2O)cc1 [Compound 5, N-[(4-ethoxyphenyl)methylidene]-2,4-dihydroxybenzohydrazide] | > 1000 µg/mL

Same assay, conditions: ATCC10231, read-out: MIC

MIC | Compound
1000 µg/mL (≈ 3.33 mM) | CCOc1ccc(/C=N/NC(=O)c2ccc(O)cc2O)cc1 [Compound 5, N-[(4-ethoxyphenyl)methylidene]-2,4-dihydroxybenzohydrazide]

Tested on: not given
Experiment: not given
Conditions: not given

melting point | Compound
248 °C | CCOc1ccc(/C=N/NC(=O)c2ccc(O)cc2O)cc1 [Compound 5, N-[(4-ethoxyphenyl)methylidene]-2,4-dihydroxybenzohydrazide]

Tested on: Staphylococcus aureus ATCC 29213
Experiment: Broth microdilution MIC/MBC
Assay type: cell-based
Conditions: not given
Excerpt: as §1
as §2, with “antimicrobials.” for “antimicrobials. All the used microbial cultures were first subcultured on nu-trient agar or Sabouraud agar at 35°C for 18-24 h or 30°C for 24-48 h for bacteria and fungi,”
(§8) Samples containing examined compounds were dissolved in dimethyl sulfoxide (DMSO). […]
as §6, §7

MBC/MIC | Compound
> 1 | CCOc1ccc(/C=N/NC(=O)c2ccc(O)cc2O)cc1 [Compound 5, N-[(4-ethoxyphenyl)methylidene]-2,4-dihydroxybenzohydrazide]

Same assay, conditions: ATCC29213

MIC | Compound | MBC
1000 µg/mL (≈ 3.33 mM) | CCOc1ccc(/C=N/NC(=O)c2ccc(O)cc2O)cc1 [Compound 5, N-[(4-ethoxyphenyl)methylidene]-2,4-dihydroxybenzohydrazide] | > 1000 µg/mL

Tested on: Micrococcus luteus ATCC 10240
Experiment: Broth microdilution MIC/MBC
Assay type: cell-based
Conditions: not given
Excerpt: as §1
as §2, with “antimicrobials.” for “antimicrobials. All the used microbial cultures were first subcultured on nu-trient agar or Sabouraud agar at 35°C for 18-24 h or 30°C for 24-48 h for bacteria and fungi,”
as §8, §6, §7

MBC/MIC | Compound
> 2 | CCOc1ccc(/C=N/NC(=O)c2ccc(O)cc2O)cc1 [Compound 5, N-[(4-ethoxyphenyl)methylidene]-2,4-dihydroxybenzohydrazide]

Same assay, conditions: ATCC10240

Compound | MBC
CCOc1ccc(/C=N/NC(=O)c2ccc(O)cc2O)cc1 [Compound 5, N-[(4-ethoxyphenyl)methylidene]-2,4-dihydroxybenzohydrazide] | > 1000 µg/mL

Same assay, conditions: ATCC10240, read-out: MIC

MIC | Compound
500 µg/mL (≈ 1.66 mM) | CCOc1ccc(/C=N/NC(=O)c2ccc(O)cc2O)cc1 [Compound 5, N-[(4-ethoxyphenyl)methylidene]-2,4-dihydroxybenzohydrazide]

Tested on: Staphylococcus epidermidis ATCC 12228
Experiment: Broth microdilution MIC/MBC
Assay type: cell-based
Conditions: ATCC12228, read-out: MIC
Excerpt: as §1
as §2, with “antimicrobials.” for “antimicrobials. All the used microbial cultures were first subcultured on nu-trient agar or Sabouraud agar at 35°C for 18-24 h or 30°C for 24-48 h for bacteria and fungi,”
as §8, §6, §7

MIC | Compound
> 1000 µg/mL | CCOc1ccc(/C=N/NC(=O)c2ccc(O)cc2O)cc1 [Compound 5, N-[(4-ethoxyphenyl)methylidene]-2,4-dihydroxybenzohydrazide]

Tested on: Proteus mirabilis ATCC 12453
Experiment: Broth microdilution MIC/MBC
Assay type: cell-based
Conditions: ATCC12453
Excerpt: as §1
as §2, with “antimicrobials.” for “antimicrobials. All the used microbial cultures were first subcultured on nu-trient agar or Sabouraud agar at 35°C for 18-24 h or 30°C for 24-48 h for bacteria and fungi,”
as §8, §6, §7

MIC | Compound
> 1000 µg/mL | CCOc1ccc(/C=N/NC(=O)c2ccc(O)cc2O)cc1 [Compound 5, N-[(4-ethoxyphenyl)methylidene]-2,4-dihydroxybenzohydrazide]

Tested on: Staphylococcus aureus ATCC 43300
Experiment: Broth microdilution MIC/MBC
Assay type: cell-based
Conditions: Staphylococcus aureus ATCC 43300 (MRSA)
Excerpt: as §1
as §2, with “antimicrobials.” for “antimicrobials. All the used microbial cultures were first subcultured on nu-trient agar or Sabouraud agar at 35°C for 18-24 h or 30°C for 24-48 h for bacteria and fungi,”
as §8, §6, §7

MIC | Compound
> 1000 µg/mL | CCOc1ccc(/C=N/NC(=O)c2ccc(O)cc2O)cc1 [Compound 5, N-[(4-ethoxyphenyl)methylidene]-2,4-dihydroxybenzohydrazide]

Tested on: Salmonella typhimurium ATCC 14028
Experiment: Broth microdilution MIC/MBC
Assay type: cell-based
Conditions: Salmonella enterica
Excerpt: as §1
as §2, with “antimicrobials.” for “antimicrobials. All the used microbial cultures were first subcultured on nu-trient agar or Sabouraud agar at 35°C for 18-24 h or 30°C for 24-48 h for bacteria and fungi,”
as §8, §6, §7

MIC | Compound
> 1000 µg/mL | CCOc1ccc(/C=N/NC(=O)c2ccc(O)cc2O)cc1 [Compound 5, N-[(4-ethoxyphenyl)methylidene]-2,4-dihydroxybenzohydrazide]

Tested on: Pseudomonas aeruginosa ATCC 9027
Experiment: Broth microdilution MIC/MBC
Assay type: cell-based
Conditions: ATCC9027
Excerpt: as §1
as §2, with “antimicrobials.” for “antimicrobials. All the used microbial cultures were first subcultured on nu-trient agar or Sabouraud agar at 35°C for 18-24 h or 30°C for 24-48 h for bacteria and fungi,”
as §8, §6, §7

MIC | Compound
> 1000 µg/mL | CCOc1ccc(/C=N/NC(=O)c2ccc(O)cc2O)cc1 [Compound 5, N-[(4-ethoxyphenyl)methylidene]-2,4-dihydroxybenzohydrazide]
